# Experiments:
# [1] = tested on: MOLP-8 human multiple myeloma xenografts; assay: MOLP-8 human multiple myeloma xenograft in CB.17 SCID mice (Xenograft Mouse Experiments A, Part I); assay type: in vivo
# Procedure: In these mice, subcutaneous tumors were established (female CB.17 SCID mice) by inoculation with MOLP-8 cell suspensions. Treatment with a single bolus intravenous injection was conducted when tumor volumes reached an average 113 mm^3. Changes in tumor volume and body weight were monitored twice per week.
# Female CB.17 SCID mice, five weeks old, were obtained from Charles River Laboratories.
# MOLP-8, a human multiple myeloma cell line, was supplied from ATCC.
# Each mouse was inoculated with 1×10^7 MOLP-8 cells subcutaneously into the area under the right shoulder. The total volume was 0.2 ml per mouse, in which the ratio of serum-free medium to matrigel (BD Bioscience, Bedford, Mass.) was 1/1 (v/v). Prior to treatment, the xenograft tumors were monitored daily and were allowed to become established.
# Eleven days after tumor cell inoculation, 42 mice were selected based on tumor volumes and body weights. […] The forty-two mice were randomly divided into seven groups (A-G) of six animals each based on tumor volume.
# Each of six mice in Group A received 200 μl of PBS as vehicle control.
# All agents were intravenously administered as a single bolus injection through a lateral tail vein with a 1 ml syringe fitted with a 27 gauge, ½ inch needle.
# (§1) Tumor size was measured twice per week in three dimensions using the LabCat System (Tumor Measurement and Tracking, Innovative Programming Associated, Inc., Princeton, N.J.). The tumor volume in mm^3 was calculated using the methodology described in Tomayko et al., Cancer Chemother.
# MOLP-8 tumor xenografts = assay: Bulky MOLP-8 tumor xenograft model in SCID mice (Part II / Xenograft Mouse Experiments B); assay type: in vivo; conditions: 450 μg/kg dose; mean time to reach 160 mm^3 minus mean time of control group
# Procedure: In a second set of experiments, MOLP-8 cells (1.5×10^7 cells per mouse), suspended in a 50:50 mixture of serum free media and matrigel were injected subcutaneously in the area under the right shoulder in 100 μl. […] Each mouse in the control group (n=6) received 0.2 ml of sterile PBS administered into the lateral tail vein (i.v.) in a bolus injection. All treatment doses were based on conjugated maytansinoid. […] Mice were randomized into eleven groups (n=6) by tumor volume using the LabCat Program. […] The mice were dosed based on the individual body weight.
# as §1
# In this set of experiments, eighty-five mice were inoculated with MOLP-8 cells (1.5×10^7 cells/mouse) subcutaneously in the right shoulder.
Substance,homogeneity of anti-tumor activity in individual mice ([1]; 250 μg/kg single i.v. dose),"median tumor volume over time post-inoculation ([1]; 250 μg/kg single i.v. dose, data not shown)","effect on tumor growth compared with PBS-treated animals ([1]; single i.v. bolus, 250 μg/kg (nBT062 antibody […]))","TGD (days), tumor growth delay (MOLP-8 tumor xenografts) [days]"
B-B4-SPP-DM1 [reference compound],more heterogeneously and therefore less predicable,relatively better results for B-B4-SPP-DM1 than for nBT062-SPP-DM1,marked delay in tumor growth,
"nBT062-DM1: nBT062 conjugate with DM1, linker not stated at this place; TGD matches nBT062-SMCC-DM1",,,,18
